We go through seven compounds from US9346761B2, “Arginine methyltransferase inhibitors and uses thereof” (Epizyme, Inc., priority 2013, dated 2016).

As a reminder, the EC30 is the point of the concentration-response curve where the effect stands at 30%. One may read the IC50 as the point on the concentration scale where inhibition reaches its midpoint. Low readings indicate higher potency, high ones lower potency.

Like-named read-outs stand apart in the source and are kept apart here. Where only a bound is given, the exact number is not on record here.

The test system of assay [1] is mono-methyl arginine in RKO cells. Description: RKO methylation assay, In Cell Western for mono-methyl arginine and DNA content. The following applies: Homo sapiens. Format: cell-based.
Assay [2] has as its target T1, Full-length human PRMT8 (Homo sapiens, UniProt Q9NR22).
T1 construct: Full-length human PRMT8 (NM_019854.4) isoform 1 transcript clone; made in house
Description: PRMT8 biochemical assay (3H-SAM Flashplate, peptide substrate). In outline:
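E. coli-expressed PRMT8, GST-cleaved, was preincubated with compound for 30 min at room temperature in 20 mM Bicine pH 7.6, 1 mM TCEP, 0.005% BSG, 0.002% Tween 20. ³H-SAM and biotinylated histone H4 31-45 peptide then started methylation.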

The mark [3] stands for this setting: In Cell Western, RKO cells, 72 hours, percent activation of mono-methyl arginine signal, read-out: EC30.

T1 sequence (Q9NR22 whole entry, canonical isoform): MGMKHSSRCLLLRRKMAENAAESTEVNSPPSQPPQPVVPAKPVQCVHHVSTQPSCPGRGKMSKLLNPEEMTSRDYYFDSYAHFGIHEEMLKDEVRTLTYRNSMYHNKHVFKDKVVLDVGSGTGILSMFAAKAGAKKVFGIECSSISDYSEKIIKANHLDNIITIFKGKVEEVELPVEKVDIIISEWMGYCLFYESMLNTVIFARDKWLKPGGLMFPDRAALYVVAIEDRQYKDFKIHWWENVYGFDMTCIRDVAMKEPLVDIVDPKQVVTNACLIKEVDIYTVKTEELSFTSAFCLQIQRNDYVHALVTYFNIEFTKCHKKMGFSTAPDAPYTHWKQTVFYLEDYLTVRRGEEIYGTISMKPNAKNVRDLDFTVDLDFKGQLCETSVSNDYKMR

Turning to `CN(CCN)Cc1c[nH]nc1-c1ccc(Oc2ccc(F)cc2)cc1` [Compound 225, N^1-((3-(4-(4-fluorophenoxy)phenyl)-1H-pyrazol-4-yl)methyl)-N^1-methylethane-1,2-diamine], the EC30 in assay [1] (setting [3]) is less than 3 µM. The IC50 in assay [2] was less than 0.1 µM.
For `CN(CCN)Cc1c[nH]nc1-c1ccc(Oc2ccccc2)c(C(=O)N(C)C)c1` [Compound 226], in assay [1] (setting [3]), the EC30 was more than 12 µM. The compound further had an IC50 in assay [2] of 3.01 to 10 µM.
Regarding `CNC(=O)c1cc(-c2n[nH]cc2CN(C)CCN)ccc1Oc1ccccc1` [Compound 227], the EC30 in assay [1] (setting [3]) is more than 12 µM. This compound also returned an IC50 in assay [2] of 0.101 to 1 µM.
`CNCCN(C)Cc1c[nH]nc1-c1ccc(OCCCOC)c(Cl)c1` [Compound 228]: the EC30 in assay [1] (setting [3]) is less than 3 µM. Besides, in assay [2], the concentration for half-maximal inhibition (IC50) lay within 0.101 to 1 µM.
Regarding `CNCCN(C)Cc1cnn(CC(=O)OC)c1-c1ccc(OC(C)C)cc1` [Compound 249], the EC30 in assay [1] (RKO, 72 h) fell in the range of 3.01 to 12 µM. In assay [2], this compound came in with an IC50 of 1.01 to 3 µM.
In the same order, the values of `CNCCN(C)Cc1cn(CC(=O)O)nc1-c1ccc(OC(C)C)cc1` [Compound 250] are more than 12 µM and 1.01 to 3 µM.
With `CNCCN(C)Cc1cn(C2CCCCC2)nc1-c1ccc(OC(C)C)cc1` [Compound 256], the EC30 in assay [1] (setting [3]) is more than 12 µM. In assay [2], the IC50 is 1.01 to 3 µM.
